{"source": "patent US4118506A", "about": "“Pharmaceutical compositions containing 1,3-dithiol-2-ylidene malonate derivatives” (Nihon Nohyaku Co., Ltd., priority 1976, dated 1978)", "key": {"[1]": {"tested_on": "fatty liver induced by carbon tetrachloride", "test": "therapeutic effect on fatty liver, carbon tetrachloride model", "assay_type": "in vivo, rat (SD strain)", "method": "Carbon tetrachloride also induces fatty liver, but the picture of disease differs from the case of ethionine-induced fatty liver. Carbon tetrachloride is generally considered to damage microsome and thereby to inhibit protein synthesis and induce fatty liver.\nCarbon tetrachloride was subcutaneously administered to 36 week-old male rats (SD strain) for 4 days at the dose of 1 ml/kg. The treated animals were left for 3 days after the last administration to maximize the manifestation of fatty liver.\nAdministration of Compound 4 was commenced on the fourth day after the administration of carbon tetrachloride was completed. It was orally given everyday for 10 days at the dose of 50 or 250 mg/kg. On the 11th day, the animals were sacrificed by exsanguination. The therapeutic effect was evaluated by determining the content of lipid in the liver (triglyceride and total lipid) and examining the histopathological changes. Triglyceride and total lipid were determined colorimetrically by chromotropic acid method and Bragdon's oxidation method, respectively.\nIndices for the histopathological change is as follows: […]"}, "[2]": {"tested_on": "liver injury and chronic hepatitis", "test": "clinical test on liver injury and chronic hepatitis", "assay_type": "in vivo, human", "details": "for p-GOT activity / p-GPT activity: tablets of Example 6, 12 a day", "method": "Six patients were used for the test. One was diagnosed as liver injury caused by administration of PAS (p-aminosalicyclic acid) for three months and five were diagnosed as chronic hepatitis by doctor.\nThe tablets obtained in Example 6 were orally administered to the respective patients at the dose of twelve tablets a day (four tablets after every meal).\nCuring effects on the liver injury and chronic hepatitis after administration were evaluated by measuring plasma transaminase activity (p-GPT and p-GOT)."}, "[3]": {"test": "acute oral toxicity to male mice (LD50)", "details": "mouse, in vivo", "source_text": "Further, these compounds have no detrimental effects on test animals administered therewith, so far as the doses thereof are within an ordinary administration range."}, "[4]": {"tested_on": "fatty liver induced by ethionine", "test": "effect on fatty liver, ethionine model", "assay_type": "in vivo, mouse (dd-strain)", "details": "250 mg/kg oral", "source_text": "There are known many factors inducing fatty liver. But, the fatty liver is grouped into a couple of patterns from the mechanism of lipid accumulation or metabolism of lipoprotein in the liver. Ethionine is a typical example which induces first pattern of fatty liver. It inhibits RNA and protein synthesis and destroys polysome of the liver cell. Fatty liver is induced by inhibition of the protein synthesis and disturbance of lipoprotein secretion.\nUsually, fatty liver is closely related to the accumulation of triglyceride in the liver. In the present example, the degree of fatty liver and protective or therapeutic effect on the fatty liver was evaluated by measurement of triglyceride content in the liver.\nThe compounds of this invention and methionine were independently dissolved or suspended into olive oil and administered orally to the male mouse (4 week-old dd-strain) at the dose of 250 mg/kg. One hour before it, simultaneously with it or one hour after it, ethionine dissolved in equimolar NaOH solution was administered intraperitoneally at the dose of 200 mg/kg. Twenty four hours after the administration of ethionine, the animals were sacrificed and triglyceride content in the liver was determined by chromotropic acid method."}, "[5]": {"tested_on": "acute liver damage induced by allyl alcohol", "test": "protective effect on acute liver damage associated with periportal necrosis, allyl alcohol model", "assay_type": "in vivo, mouse (dd strain)", "details": "250 mg/kg oral 6 h before allyl alcohol 0.075 ml/kg oral; 24 h after", "method": "The compound of this invention or anethol trithion was orally administered to the male mouse (4 week/old, dd strain) at the dose of 250 mg/kg. Six hours after it, allyl alcohol was orally administered at the dose of 0.075 ml/kg. Twenty four hours after it, the animals were sacrificed to collect blood samples."}, "[6]": {"details": "50 mg/kg oral everyday for 10 days"}, "[7]": {"details": "patient 1, liver injury (PAS), person, before administration"}, "[8]": {"details": "patient 2, chronic hepatitis, before administration"}, "[9]": {"details": "patient 3, chronic hepatitis, before administration"}, "[10]": {"details": "patient 4, chronic hepatitis, before administration"}, "[11]": {"details": "patient 5, chronic hepatitis, before administration"}, "[12]": {"details": "patient 6, chronic hepatitis, before administration"}}}
{"smiles": "CC(C)OC(=O)C(C(=O)OC(C)C)=C1SC=CS1", "note": "[Compound 4, diisopropyl 1,3-dithiol-2-ylidene malonate]", "values": [{"measurement": "Total lipid", "setting": "[1]; [6]", "result": "78.6 ± 16.8", "unit": "mg/g-liver"}, {"measurement": "Triglyceride", "setting": "[1]; [6]", "result": "37.6 ± 8.5", "unit": "mg/g-liver"}, {"measurement": "Total lipid", "setting": "[1]; 250 mg/kg, 10 days", "result": "64.1 ± 10.2", "unit": "mg/g-liver"}, {"measurement": "Triglyceride", "setting": "[1]; 250 mg/kg, 10 days", "result": "23.6 ± 7.0", "unit": "mg/g-liver"}, {"measurement": "plasma transaminase activity (p-GPT and p-GOT)", "setting": "[2]; in words", "result": "useful for normalizing plasma transaminase activity"}, {"measurement": "p-GOT activity", "setting": "[2]; patient 1, after 3 days", "result": 270, "unit": "Karmen Unit"}, {"measurement": "p-GPT activity", "setting": "[2]; patient 1, after 3 days", "result": 215, "unit": "Karmen Unit"}, {"measurement": "p-GOT activity", "setting": "[2]; patient 1, after 4 days", "result": 231, "unit": "Karmen Unit"}, {"measurement": "p-GPT activity", "setting": "[2]; patient 1, after 4 days", "result": 169, "unit": "Karmen Unit"}, {"measurement": "p-GOT activity", "setting": "[2]; patient 1, after 7 days", "result": 81, "unit": "Karmen Unit"}, {"measurement": "p-GPT activity", "setting": "[2]; patient 1, after 7 days", "result": 94, "unit": "Karmen Unit"}, {"measurement": "p-GOT activity", "setting": "[2]; patient 1, after 12 days", "result": 36, "unit": "Karmen Unit"}, {"measurement": "p-GPT activity", "setting": "[2]; patient 1, after 12 days", "result": 41, "unit": "Karmen Unit"}, {"measurement": "p-GOT activity", "setting": "[2]; patient 1, after 15 days", "result": 37, "unit": "Karmen Unit"}, {"measurement": "p-GPT activity", "setting": "[2]; patient 1, after 15 days", "result": 24, "unit": "Karmen Unit"}, {"measurement": "p-GOT activity", "setting": "[2]; patient 1, after 19 days", "result": 24, "unit": "Karmen Unit"}, {"measurement": "p-GPT activity", "setting": "[2]; patient 1, after 19 days", "result": 21, "unit": "Karmen Unit"}, {"measurement": "p-GOT activity", "setting": "[2]; [7]", "result": 270, "unit": "Karmen Unit"}, {"measurement": "p-GPT activity", "setting": "[2]; [7]", "result": 270, "unit": "Karmen Unit"}, {"measurement": "p-GOT activity", "setting": "[2]; patient 2, after 14 days", "result": 68, "unit": "Karmen Unit"}, {"measurement": "p-GPT activity", "setting": "[2]; patient 2, after 14 days", "result": 62, "unit": "Karmen Unit"}, {"measurement": "p-GOT activity", "setting": "[2]; patient 2, after 35 days", "result": 24, "unit": "Karmen Unit"}, {"measurement": "p-GPT activity", "setting": "[2]; patient 2, after 35 days", "result": 43, "unit": "Karmen Unit"}, {"measurement": "p-GOT activity", "setting": "[2]; [8]", "result": 270, "unit": "Karmen Unit"}, {"measurement": "p-GPT activity", "setting": "[2]; [8]", "result": 270, "unit": "Karmen Unit"}, {"measurement": "p-GOT activity", "setting": "[2]; patient 3, after 14 days", "result": 100, "unit": "Karmen Unit"}, {"measurement": "p-GPT activity", "setting": "[2]; patient 3, after 14 days", "result": 96, "unit": "Karmen Unit"}, {"measurement": "p-GOT activity", "setting": "[2]; patient 3, after 56 days", "result": 77, "unit": "Karmen Unit"}, {"measurement": "p-GPT activity", "setting": "[2]; patient 3, after 56 days", "result": 87, "unit": "Karmen Unit"}, {"measurement": "p-GOT activity", "setting": "[2]; [9]", "result": 145, "unit": "Karmen Unit"}, {"measurement": "p-GPT activity", "setting": "[2]; [9]", "result": 163, "unit": "Karmen Unit"}, {"measurement": "p-GOT activity", "setting": "[2]; patient 4, after 2 days", "result": 60, "unit": "Karmen Unit"}, {"measurement": "p-GPT activity", "setting": "[2]; patient 4, after 2 days", "result": 113, "unit": "Karmen Unit"}, {"measurement": "p-GOT activity", "setting": "[2]; patient 4, after 9 days", "result": 68, "unit": "Karmen Unit"}, {"measurement": "p-GPT activity", "setting": "[2]; patient 4, after 9 days", "result": 94, "unit": "Karmen Unit"}, {"measurement": "p-GOT activity", "setting": "[2]; patient 4, after 16 days", "result": 49, "unit": "Karmen Unit"}, {"measurement": "p-GPT activity", "setting": "[2]; patient 4, after 16 days", "result": 62, "unit": "Karmen Unit"}, {"measurement": "p-GOT activity", "setting": "[2]; patient 4, after 62 days", "result": 33, "unit": "Karmen Unit"}, {"measurement": "p-GPT activity", "setting": "[2]; patient 4, after 62 days", "result": 33, "unit": "Karmen Unit"}, {"measurement": "p-GOT activity", "setting": "[2]; [10]", "result": 80, "unit": "Karmen Unit"}, {"measurement": "p-GPT activity", "setting": "[2]; [10]", "result": 185, "unit": "Karmen Unit"}, {"measurement": "p-GOT activity", "setting": "[2]; patient 5, after 8 days", "result": 78, "unit": "Karmen Unit"}, {"measurement": "p-GPT activity", "setting": "[2]; patient 5, after 8 days", "result": 119, "unit": "Karmen Unit"}, {"measurement": "p-GOT activity", "setting": "[2]; patient 5, after 28 days", "result": 65, "unit": "Karmen Unit"}, {"measurement": "p-GPT activity", "setting": "[2]; patient 5, after 28 days", "result": 79, "unit": "Karmen Unit"}, {"measurement": "p-GOT activity", "setting": "[2]; patient 5, after 30 days", "result": 57, "unit": "Karmen Unit"}, {"measurement": "p-GPT activity", "setting": "[2]; patient 5, after 30 days", "result": 57, "unit": "Karmen Unit"}, {"measurement": "p-GOT activity", "setting": "[2]; [11]", "result": 95, "unit": "Karmen Unit"}, {"measurement": "p-GPT activity", "setting": "[2]; [11]", "result": 94, "unit": "Karmen Unit"}, {"measurement": "p-GOT activity", "setting": "[2]; patient 6, after 14 days", "result": 108, "unit": "Karmen Unit"}, {"measurement": "p-GPT activity", "setting": "[2]; patient 6, after 14 days", "result": 306, "unit": "Karmen Unit"}, {"measurement": "p-GOT activity", "setting": "[2]; patient 6, after 23 days", "result": 48, "unit": "Karmen Unit"}, {"measurement": "p-GPT activity", "setting": "[2]; patient 6, after 23 days", "result": 121, "unit": "Karmen Unit"}, {"measurement": "p-GOT activity", "setting": "[2]; patient 6, after 36 days", "result": 33, "unit": "Karmen Unit"}, {"measurement": "p-GPT activity", "setting": "[2]; patient 6, after 36 days", "result": 65, "unit": "Karmen Unit"}, {"measurement": "p-GOT activity", "setting": "[2]; patient 6, after 56 days", "result": 24, "unit": "Karmen Unit"}, {"measurement": "p-GPT activity", "setting": "[2]; patient 6, after 56 days", "result": 53, "unit": "Karmen Unit"}, {"measurement": "p-GOT activity", "setting": "[2]; patient 6, after 82 days", "result": 24, "unit": "Karmen Unit"}, {"measurement": "p-GPT activity", "setting": "[2]; patient 6, after 82 days", "result": 39, "unit": "Karmen Unit"}, {"measurement": "p-GOT activity", "setting": "[2]; [12]", "result": 83, "unit": "Karmen Unit"}, {"measurement": "p-GPT activity", "setting": "[2]; [12]", "result": 354, "unit": "Karmen Unit"}, {"measurement": "LD50", "setting": "[3]", "result": 3120, "unit": "mg/kg"}, {"measurement": "Triglyceride", "setting": "[4]; 1 hr after ethionine 200 mg/kg i.p.", "result": "10.0 ± 1.15", "unit": "mg/g-liver"}, {"measurement": "Triglyceride", "setting": "[4]; 1 hr before ethionine 200 mg/kg i.p.", "result": "9.1 ± 1.15", "unit": "mg/g-liver"}, {"measurement": "Triglyceride", "setting": "[4]; simultaneously with (0 hr) ethionine 200 mg/kg i.p.", "result": "5.4 ± 0.61", "unit": "mg/g-liver"}, {"measurement": "BSP", "setting": "[5]", "result": "17 ± 3.2"}]}
